Experimental data published in the NIST ThermoML archive (doi:10.1016/j.fluid.2004.09.013).
Numbers after ± are expanded uncertainties.

Conditions: for mass density: Fluid (supercritical or subcritical phases), Vibrating tube method; for vapor or sublimation pressure: Liquid

Compound: C=CCC [1-butene]
- mass density (273.24 K, 612 kPa): 619.16 ± 1.2 kg/m3
- mass density (273.24 K, 4987 kPa): 624.98 ± 1.3 kg/m3
- mass density (273.24 K, 9990 kPa): 631.06 ± 1.3 kg/m3
- mass density (273.24 K, 15004 kPa): 636.64 ± 1.3 kg/m3
- mass density (273.24 K, 20005 kPa): 641.81 ± 1.4 kg/m3
- mass density (273.24 K, 24989 kPa): 646.61 ± 1.4 kg/m3
- mass density (273.24 K, 29996 kPa): 651.13 ± 1.4 kg/m3
- mass density (273.24 K, 34991 kPa): 655.38 ± 1.4 kg/m3
- mass density (273.24 K, 39998 kPa): 659.41 ± 1.5 kg/m3
- mass density (278.25 K, 610 kPa): 613.23 ± 1.2 kg/m3
- mass density (278.25 K, 4982 kPa): 619.35 ± 1.3 kg/m3
- mass density (278.25 K, 9991 kPa): 625.73 ± 1.3 kg/m3
- mass density (278.25 K, 14984 kPa): 631.55 ± 1.3 kg/m3
- mass density (278.25 K, 20001 kPa): 636.92 ± 1.3 kg/m3
- mass density (278.25 K, 24985 kPa): 641.91 ± 1.4 kg/m3
- mass density (278.25 K, 30007 kPa): 646.61 ± 1.4 kg/m3
- mass density (278.25 K, 34997 kPa): 650.99 ± 1.4 kg/m3
- mass density (278.25 K, 39995 kPa): 655.14 ± 1.5 kg/m3
- mass density (283.26 K, 610 kPa): 607.22 ± 1.2 kg/m3
- mass density (283.26 K, 4984 kPa): 613.69 ± 1.2 kg/m3
- mass density (283.26 K, 9995 kPa): 620.39 ± 1.3 kg/m3
- mass density (283.26 K, 15000 kPa): 626.47 ± 1.3 kg/m3
- mass density (283.26 K, 19989 kPa): 632.05 ± 1.3 kg/m3
- mass density (283.26 K, 24987 kPa): 637.22 ± 1.4 kg/m3
- mass density (283.26 K, 30013 kPa): 642.08 ± 1.4 kg/m3
- mass density (283.26 K, 35003 kPa): 646.62 ± 1.4 kg/m3
- mass density (283.26 K, 39990 kPa): 650.88 ± 1.4 kg/m3
- mass density (288.27 K, 611 kPa): 601.14 ± 1.2 kg/m3
- mass density (288.27 K, 14998 kPa): 621.36 ± 1.3 kg/m3
- mass density (288.28 K, 4990 kPa): 607.98 ± 1.2 kg/m3
- mass density (288.28 K, 9997 kPa): 615.01 ± 1.3 kg/m3
- mass density (288.28 K, 19990 kPa): 627.16 ± 1.3 kg/m3
- mass density (288.28 K, 24993 kPa): 632.55 ± 1.4 kg/m3
- mass density (288.28 K, 30009 kPa): 637.56 ± 1.4 kg/m3
- mass density (288.28 K, 35002 kPa): 642.25 ± 1.4 kg/m3
- mass density (288.28 K, 39995 kPa): 646.65 ± 1.4 kg/m3
- vapor or sublimation pressure (289.42 K): 225.85 ± 0.89 kPa
- mass density (293.29 K, 611 kPa): 594.95 ± 1.2 kg/m3
- mass density (293.29 K, 4994 kPa): 602.2 ± 1.2 kg/m3
- mass density (293.29 K, 9995 kPa): 609.58 ± 1.3 kg/m3
- mass density (293.29 K, 14989 kPa): 616.2 ± 1.3 kg/m3
- mass density (293.29 K, 19984 kPa): 622.26 ± 1.3 kg/m3
- mass density (293.29 K, 24990 kPa): 627.84 ± 1.5 kg/m3
- mass density (293.29 K, 29991 kPa): 633.02 ± 1.4 kg/m3
- mass density (293.29 K, 34994 kPa): 637.87 ± 1.4 kg/m3
- mass density (293.29 K, 39994 kPa): 642.42 ± 1.4 kg/m3
- vapor or sublimation pressure (294 K): 260.86 ± 1 kPa
- mass density (298.3 K, 613 kPa): 588.66 ± 1.2 kg/m3
- mass density (298.3 K, 4990 kPa): 596.33 ± 1.2 kg/m3
- mass density (298.3 K, 10001 kPa): 604.11 ± 1.2 kg/m3
- mass density (298.3 K, 14994 kPa): 611.04 ± 1.3 kg/m3
- mass density (298.3 K, 19995 kPa): 617.35 ± 1.3 kg/m3
- mass density (298.3 K, 24993 kPa): 623.14 ± 1.3 kg/m3
- mass density (298.3 K, 30005 kPa): 628.51 ± 1.4 kg/m3
- mass density (298.3 K, 35015 kPa): 633.51 ± 1.4 kg/m3
- mass density (298.3 K, 40003 kPa): 638.19 ± 1.4 kg/m3
- vapor or sublimation pressure (301.73 K): 329.59 ± 1.2 kPa
- mass density (303.31 K, 661 kPa): 582.33 ± 1.2 kg/m3
- mass density (303.31 K, 9983 kPa): 598.56 ± 1.2 kg/m3
- mass density (303.31 K, 15001 kPa): 605.85 ± 1.3 kg/m3
- mass density (303.31 K, 19987 kPa): 612.4 ± 1.3 kg/m3
- mass density (303.31 K, 24994 kPa): 618.42 ± 1.3 kg/m3
- mass density (303.31 K, 30008 kPa): 623.99 ± 1.4 kg/m3
- mass density (303.31 K, 35004 kPa): 629.15 ± 1.4 kg/m3
- mass density (303.32 K, 4995 kPa): 590.39 ± 1.2 kg/m3
- mass density (303.32 K, 40006 kPa): 633.97 ± 1.4 kg/m3
- vapor or sublimation pressure (306.48 K): 378.14 ± 1.4 kPa
- mass density (308.32 K, 4985 kPa): 584.34 ± 1.2 kg/m3
- mass density (308.32 K, 9991 kPa): 592.99 ± 1.2 kg/m3
- mass density (308.32 K, 14996 kPa): 600.61 ± 1.3 kg/m3
- mass density (308.32 K, 19992 kPa): 607.46 ± 1.3 kg/m3
- mass density (308.32 K, 25004 kPa): 613.71 ± 1.3 kg/m3
- mass density (308.32 K, 30007 kPa): 619.45 ± 1.4 kg/m3
- mass density (308.32 K, 34999 kPa): 624.79 ± 1.4 kg/m3
- mass density (308.32 K, 40000 kPa): 629.76 ± 1.4 kg/m3
- mass density (308.33 K, 713 kPa): 575.87 ± 1.2 kg/m3
- mass density (313.2 K, 947 kPa): 569.83 ± 1.2 kg/m3
- mass density (313.2 K, 4992 kPa): 578.34 ± 1.2 kg/m3
- mass density (313.2 K, 9990 kPa): 587.43 ± 1.2 kg/m3
- mass density (313.2 K, 14997 kPa): 595.4 ± 1.2 kg/m3
- mass density (313.2 K, 19994 kPa): 602.53 ± 1.3 kg/m3
- mass density (313.2 K, 24994 kPa): 609.01 ± 1.3 kg/m3
- mass density (313.2 K, 30011 kPa): 614.95 ± 1.4 kg/m3
- mass density (313.2 K, 35009 kPa): 620.44 ± 1.4 kg/m3
- mass density (313.2 K, 39997 kPa): 625.59 ± 1.4 kg/m3
- vapor or sublimation pressure (315.34 K): 484.39 ± 1.8 kPa
- mass density (318.21 K, 1037 kPa): 563.26 ± 1.1 kg/m3
- mass density (318.21 K, 5017 kPa): 572.17 ± 1.2 kg/m3
- mass density (318.21 K, 10015 kPa): 581.78 ± 1.2 kg/m3
- mass density (318.21 K, 15007 kPa): 590.11 ± 1.2 kg/m3
- mass density (318.21 K, 20018 kPa): 597.56 ± 1.3 kg/m3
- mass density (318.21 K, 25018 kPa): 604.28 ± 1.3 kg/m3
- mass density (318.21 K, 30002 kPa): 610.4 ± 1.4 kg/m3
- mass density (318.21 K, 35001 kPa): 616.07 ± 1.4 kg/m3
- mass density (318.21 K, 39996 kPa): 621.35 ± 1.4 kg/m3
- vapor or sublimation pressure (321.69 K): 572.17 ± 2.1 kPa
- mass density (323.21 K, 1110 kPa): 556.48 ± 1.1 kg/m3
- mass density (323.21 K, 9982 kPa): 575.95 ± 1.2 kg/m3
- mass density (323.21 K, 14984 kPa): 584.73 ± 1.2 kg/m3
- mass density (323.21 K, 25001 kPa): 599.51 ± 1.3 kg/m3
- mass density (323.21 K, 30001 kPa): 605.88 ± 1.4 kg/m3
- mass density (323.21 K, 34994 kPa): 611.74 ± 1.4 kg/m3
- mass density (323.21 K, 40004 kPa): 617.19 ± 1.4 kg/m3
- mass density (323.22 K, 5006 kPa): 565.82 ± 1.2 kg/m3
- mass density (323.22 K, 19997 kPa): 592.52 ± 1.3 kg/m3
- mass density (328.22 K, 1187 kPa): 549.53 ± 1.1 kg/m3
- mass density (328.22 K, 4989 kPa): 559.32 ± 1.1 kg/m3
- mass density (328.22 K, 9998 kPa): 570.14 ± 1.2 kg/m3
- mass density (328.22 K, 14996 kPa): 579.36 ± 1.2 kg/m3
- mass density (328.22 K, 19992 kPa): 587.47 ± 1.3 kg/m3
- mass density (328.22 K, 25011 kPa): 594.75 ± 1.3 kg/m3
- mass density (328.22 K, 30003 kPa): 601.33 ± 1.3 kg/m3
- mass density (328.22 K, 34986 kPa): 607.37 ± 1.4 kg/m3
- mass density (328.22 K, 40001 kPa): 613 ± 1.4 kg/m3
- vapor or sublimation pressure (329.51 K): 695.71 ± 2.5 kPa
